In publication PMC6272428 (Molecules, 2015):

Assays:
[1] = Pharmacokinetics of four compounds in plasma after oral administration of GSBXD and its plus-minus prescriptions in normal rats (LC-MS/MS); assay type: in vivo; settings: Wistar, rat
Method: Plasma samples (200 μL) and IS solution (50 μL, 1215 ng/mL for diphenhydramine, 476 ng/mL for chloromycetin) were added in an Eppendorf tube, and this mixture was extracted with methanol (550 μL) by shaking on a vortex-mixer for 2 min, and centrifuged for 10 min at 13,000 rpm. The contents were evaporated to dryness on a rotary evaporator at 37 °C. The residue was reconstituted in methanol (100 μL) and centrifuged (13,000 rpm for 10 min). The supernatant was transferred to an auto sample vail and an aliquot of 5 μL was injected onto the UPLC-MS/MS system for analysis.
The developed and validated method was applied to the pharmacokinetic evaluation of the four compounds after oral administration of different fractions to normal rats (Figure 3).
Raw materials of Glycyrrhiza uralensis Fisch (Gancao), Paeonia lactiflora Pall (Baishao), Pinellia ternata Breit (Banxia) in a weight ratio of 10:15:9 (50, 75 and 45 g) were crushed into small pieces. The mixture was refluxed with 1.7 L water for 1 h and with 1.36 L water for 1 h. The filtrates were combined and concentrated below 70 °C to obtain a certain volume at the ratio of 1.5:1 (w/w, weight of all constituting herbs and the extract filtrates) under vacuum. Powder of Euphorbia kansui T. N. Liou ex T. P. Wang. […] The same method was used to prepare GSBXD minus Gancao (GSBXD-GC); GSBXD minus Gansui (GSBXD-GS); GSBXD minus Gancao and Gansui (GSBXD-GG); the extract of Gancao and Gansui (GG) and the extract of Gancao (GC). The extracts contained 19.21, 18.73, 46.53, 15.82 μg/mL of compounds 1–4 in GSBXD; 0, 0, 51.03, 17.88 μg/mL of compounds 1–4 in GSBXD-GC; 19.21, 18.73, 46.53, 15.82 μg/mL of compounds 1–4 in GSBXD-GS; 0, 0, 51.03, 17.88 μg/mL of compounds 1–4 in GSBXD-GG; 20.03, 17.09, 0, 0 μg/mL of compounds 1–4 in GG, 20.03, 17.09, 0, 0 μg/mL of compounds 1–4 in GC.
For pharmacokinetic studies, Wistar rats were divided into ten groups (n = 6 per group). Rats in the normal and model GSBXD groups were administered GSBXD at a dose of 15 mL/kg intragastrically. In the normal and model GSBXD-GC groups, GSBXD-GC (12 mL/kg) was administrated. In the normal and model GSBXD-GS groups, GSBXD-GS (15 mL/kg) was administrated. In the normal and model GSBXD-GC-GS groups, GSBXD-GC-GS (12 mL/kg) was administrated. In the normal and model GG groups, GG (7.5 mL/kg) was administrated. Blood samples were collected at specific time points before (0 min) and after oral administration (5, 10, 20, 40, 60, 120, 240, 360, 480, 600 and 1440 min). A total of 720 blood samples were collected. All the blood samples were immediately centrifuged at 2500 rpm for 10 min to obtain plasma, which was labeled and frozen at −80 °C until analysis. Blank plasma was obtained from the rats without oral administration and was used to investigate the assay development and validation.
To determine the pharmacokinetic parameters of compounds 1–4 in different groups, concentration–time data were analyzed by DAS 3.2 software (Mathematical Pharmacology Professional Committee of China, Shanghai, China, 2011). Data were expressed as the mean […] standard deviation (S.D.) with triplicate measurements. The identification of significances between different groups was carried out with Student’s t-test. A P value < 0.05 was considered statistically significant.

[2] = Stability of the four compounds in rat plasma QC samples (freeze-thaw, storage at −80 °C, autosampler); assay type: physicochemical; settings: for Stability, Autosampler for 24 h, Accuracy: processed rat plasma, auto-sampler 4 °C for 24 h; for Stability, Freeze-thaw cycles, Accuracy / Stability, At −80 °C for a Month, Accuracy: rat plasma; for Stability, Freeze-thaw cycles, Accuracy: three freeze-thaw cycles −80 °C to 20 °C
Method: Stability of the four analytes during the sample storing and processing procedures was fully evaluated by analysis of QC samples.
Three QC samples (five samples for each) were tested for pre-treatment, post-treatment, three freeze-thaw cycles and long-term stabilities. Pre-treatment stability was assessed by exposing QC samples at room temperature for 4 h. Post-treatment stability was evaluated by placing QC samples in the auto-sampler at 4 °C for 24 h. For freeze–thaw cycle stability assessment, QC samples were repeatedly frozen and thawed for three cycles from −80 °C to 20 °C. […]

[3] = 12 mL/kg, group GSBXD-GC (GSBXD minus Gancao), 12 mL/kg oral, normal rats, n = 6, mean ± S.D.
[4] = 12 mL/kg, group GSBXD-GG (GSBXD minus Gancao and Gansui), 12 mL/kg oral, normal rats, n = 6, mean ± S.D.
[5] = 15 mL/kg, group GSBXD, 15 mL/kg intragastrically, normal rats, n = 6, mean ± S.D.
[6] = 15 mL/kg, group GSBXD-GS (GSBXD minus Gansui), 15 mL/kg oral, normal rats, n = 6, mean ± S.D.
[7] = high QC concentration (1.23 × 10^3, 1.11 × 10^3, 1.14 × 10^3, 1.42 × 10^3 ng/mL for 1–4)
[8] = low QC concentration (1.91 × 10, 4.32, 1.78 × 10, 1.11 × 10 ng/mL for 1–4)
[9] = middle QC concentration (3.09 × 10^2, 1.38 × 10^2, 1.43 × 10^2, 1.77 × 10^2 ng/mL for 1–4)

Structure (SMILES) | AUC(0-t) [1, 3] | Cmax [1, 3] | Tmax [1, 3] | half-life [1, 3] | AUC(0-t) [1, 4] | Cmax [1, 4] | half-life [1, 4] | AUC(0-t) [1, 5] | Cmax [1, 5] | Tmax [1, 5] | half-life [1, 5] | AUC(0-t) [1, 6] | Cmax [1, 6] | Tmax [1, 6] | half-life [1, 6] | Stability, Autosampler for 24 h, Accuracy [2, 7] | Stability, Autosampler for 24 h, Accuracy [2, 8] | Stability, Autosampler for 24 h, Accuracy [2, 9] | Stability, Freeze-thaw cycles, Accuracy [2, 7] | Stability, Freeze-thaw cycles, Accuracy [2, 8] | further results
C[C@@]12C[C@@]3(O)O[C@@H](O1)[C@]1(COC(=O)c4ccccc4)[C@H]3C[C@@]12O[C@@H]1O[C@H](CO)[C@@H](O)[C@H](O)[C@H]1O [Compound 3, paeoniflorin] | 362 ± 40.4 ng·h/mL | 74.1 ± 26 ng/mL | 0.31 ± 0.07 h | 16 ± 2.62 h | 659 ± 411 ng·h/mL | 150 ± 24.5 ng/mL | 21.4 ± 8.85 h | 825 ± 96 ng·h/mL | 82.8 ± 15.7 ng/mL | 0.81 ± 0.34 h | 12.6 ± 7.46 h | 910 ± 476 ng·h/mL | 101 ± 18 ng/mL | 1.33 ± 0.37 h | 7.9 ± 1.17 h | 104.13% | 98.03% | 91.28% | 91.57% | 87.63% | Tmax ([1]; 12 mL/kg): 0.5 ± 0.28 h; Stability, Freeze-thaw cycles, Accuracy [2, 9]: 92.10%; Stability, At −80 °C for a Month, Accuracy [2, 7]: 89.55%; Stability, At −80 °C for a Month, Accuracy [2, 8]: 87.54%; Stability, At −80 °C for a Month, Accuracy [2, 9]: 95.32%
CC12CC(O)C3CC1(OC1OC(CO)C(O)C(O)C1O)C3(COC(=O)c1ccccc1)C(=O)O2 (centres unmarked) [Compound 4, albiflorin] | 619 ± 130 ng·h/mL | 88.5 ± 18.3 ng/mL | 0.81 ± 0.62 h | 7.74 ± 0.74 h | 785 ± 158 ng·h/mL | 113 ± 25.8 ng/mL | 8.73 ± 0.98 h | 1110 ± 346 ng·h/mL | 255 ± 98 ng/mL | 0.33 ± 0.18 h | 8.06 ± 1.44 h | 514 ± 271 ng·h/mL | 142 ± 39.8 ng/mL | 0.28 ± 0.14 h | 9.07 ± 0.87 h | 99.91% | 97.15% | 91.22% | 98.33% | 93.49% | Tmax [1, 4]: 0.56 ± 0.27 h; Stability, Freeze-thaw cycles, Accuracy [2, 9]: 102.34%; Stability, At −80 °C for a Month, Accuracy [2, 7]: 88.48%; Stability, At −80 °C for a Month, Accuracy [2, 8]: 101.5%; Stability, At −80 °C for a Month, Accuracy [2, 9]: 79.13%
